Marks after values point to notes of the source that are not given here.

Data set [1] has as its system termite, Odontotermes sp. The experiment in a line: Surface toxicity assay against termites, planar arena. In kind it is in vivo. Conditions: 25 ml/lit., termites released one hour after spraying, mean of five replications. Here is the method:
(§1) The formulation was evaluated under laboratory conditions following standard protocols for its contact and surface toxicity, against termite, Odontotermes sp. to simulate real field conditions. In the topical (direct contact toxicity) assay, the bio-termiticide was sprayed directly on the termites and mortality (death), repellence (moving away) or anti-feedant (non-feeding) effects were studied. This assay was carried out in simulation of curative management viz., post-infestation management. In the surface toxicity assay the surface on which the termites walk over was sprayed, termites were allowed to move on the treated surface later and mortality (death), repellence (moving a way) or anti-feedant (non-feeding) effects were studied. This assay was carried out in simulation of preventive management viz., pre-infestation management. These two methods were planned as they suffice the current needs of pre- and post-infestation termite management.
(§2) Both the topical and surface toxicity bioassays were carried out using planar arena assay method (Chouvenc et al. 20112011, Planar Arenas for Use in Laboratory Bioassay Studies of Subterranean Termites (Rhinotermitidae). Florida Entomologist, 94(4): 817-826) with minor modifications. Seven concentrations of the cedar wood oil Emulsifiable concentrate formulation, standard check Chlorpyriphos and untreated control were used in the bioassay. […]

For data set [2], the system named is termite, Odontotermes sp. The experiment in a line: Topical (direct contact toxicity) assay against termites, planar arena. In kind it is in vivo. Conditions: 25 ml/lit., after 24 hours, mean of five replications. Here is the method:
as §1, §2

The subject of the next data set is decay fungi. The data set can be described thus: Protection of wood from decay fungi, Marandi wood blocks kept in open space for one year. The conditions noted are these: Marandi wood blocks sprayed, untreated control infested by Fusarium oxysporum. The text has this: Blocks of Marandi wood of size 30×15×4 cm (L×B×W) were taken for the experiment. The emulsion of cedar wood oil emulsifiable concentrate formulation in water was sprayed on two replicates of wooden blocks using a band sprayer. No emulsion was applied on untreated control. Market sample of Propiconazole was used as standard check for comparing the effect of this botanical cedar wood oil emulsifiable concentrate formulation. The blocks after application and untreated control were kept in open space for a period of one year starting from the month of November up to the month of October to subject the blocks to winter, summer and rainy season. Observations on the wooden blocks were taken to check the infestation of fungi and damage caused by fungi.

As for `CCOP(=S)(OCC)Oc1nc(Cl)c(Cl)cc1Cl` [Chlorpyriphos], in data set [1], the “Percent Mortality” value is listed as 80 (63.43)^b Percent and the Percent repellence is given as 4 (11.54)^e Percent. In data set [2], the “Percent Mortality” value was 92 (73.57)^b Percent and the Percent repellence is recorded as 0 (0.29)^e Percent.

Consider `CCCC1COC(Cn2cncn2)(c2ccc(Cl)cc2Cl)O1` (centres unmarked) [Propiconazole], for which the “infestation of fungi on treated wooden blocks” value in the data set on decay fungi is reported as “No infestation of the fungi”.

For the origin of these results see patent publication US20240188571A1, “EMULSIFIABLE CONCENTRATE COMPOSITION AS WOOD PROTECTANT AND FOR TERMITE AND FUNGAL PATHOGENS CONTROL APPLICATIONS” (priority 2021, published 2024).
